Measurements from patent US11767286B2, “Phenylpropionate compound, preparation method for same, and applications thereof” (SUZHOU PHARMAVAN CO., LTD, priority 2017, dated 2023).
Like-named read-outs stand apart in the source and are kept apart here.

What was measured:
[1] = test system: rats with acute cerebral ischemia-reperfusion; assay: Blood viscosity of rats with acute cerebral ischemia-reperfusion (blood viscometer); assay type: in vivo, SD rats; design: unit not given here; details: 4 mg/kg iv 2 h after reperfusion; blood 4 h after administration; n=5
Procedure: Trial method: Effects on inflammatory factors and blood viscosity of rats with acute cerebral ischemia-reperfusion: 70 Male SD rats underwent an MACO surgery by a suture method, and after the surgery, alive rats were randomly grouped (into 7 groups, the number of successful animals in each group was guaranteed to be 6 to 8). Blood perfusion was recovered 2 h after MCAO, and corresponding trial medicaments were intravenously injected 2 h after blood reperfusion. 4 hours after the administration, blood was collected and the rats were sacrificed to take out brain tissues. The brain tissues and part of the blood were centrifuged to collect serum which was detected for inflammatory factors, and part of the blood was detected for blood viscosity by using a blood viscometer. Detected indicators: cerebral infarction area; inflammatory factors IL-1β and TNF-α; and blood viscosity.
Table 2 lists results of effects of phenylpropionate compounds (4 mg/kg) on blood viscosity of rats (n=5).

[2] = test system: platelet aggregation induced with ADP; assay: Maximum platelet aggregation rate of rabbits, induced with ADP; assay type: cell-based; details: rabbit plasma, 4 mg/kg as printed, n=3; for inhibition at 4 mg/kg: Oryctolagus cuniculus, Platelet
Procedure: (§1) Effects on maximum platelet aggregation rate of rabbits: 3 Rabbits were anesthetized, and blood was collected from the heart to obtain 14 parts of plasma for each rabbit (1 ml per part of plasma). 7 Parts were induced with ADP to allow platelet aggregation, and 7 parts were induced with a platelet activating factor. After the induction, a solvent, positive control drug aspirin, and 5 samples to be trialed were separately added to the plasma, and maximum platelet aggregation rate was detected with a platelet aggregation meter. The trials were repeated 3 times, and an average was taken. Detected indicator: maximum platelet aggregation rate.
(§2) Table 4 lists results of effects of phenylpropionate compounds (4 mg/kg) on platelet aggregation rate of rabbits (n=3).

[3] = test system: platelet aggregation induced with a platelet activating factor; assay: Maximum platelet aggregation rate of rabbits, induced with PAF; assay type: cell-based; details: rabbit plasma, 4 mg/kg as printed; for inhibition at 4 mg/kg: Oryctolagus cuniculus, Platelet, n=3, read-out: Inhibiton rate on Aggregation; for Maximum Aggregation Rate: n=3
Procedure: as §1, §2

[4] = test system: SD rat model of focal ischemia-reperfusion; assay: Pharmacodynamic (administration) time window in SD rat model of focal ischemia-reperfusion (MCAO); assay type: in vivo, SD rats; details: for Score of Symptoms of Neurological Deficits: 48 h, modified Bederson 5-point scale; for Infarction area: evaluated after 48 h, mean ± standard error
Procedure: In this example, Compound A was measured for a pharmacodynamic time window by a method described below.
Trial method: A cerebral ischemia reperfusion model of middle cerebral artery occlusion (MCAO) was prepared by an internal carotid artery suture method. An animal was anesthetized with 10% chloral hydrate (3.6 mL/kg) and then fixed on an operating table in a supine position. Its skin was disinfected, and a midline incision was made on the neck. The right common carotid artery, external carotid artery, and internal carotid artery were separated, the vagus nerve was gently striped off, and the external carotid artery was ligated and cut. The common carotid artery was clamped at the proximal end. […] The nylon thread was advanced through the bifurcation of the common carotid artery into the internal carotid artery, and then was slowly inserted until there was slight resistance (about 20 mm from the bifurcation) to block all the blood supply to the middle cerebral artery. 2 h after cerebral ischemia, the nylon thread was gently pulled out to restore blood supply for reperfusion, and the neck skin was sutured and disinfected. The animal was put back in a cage and raised. During the modeling operation, animals with abnormal conditions due to anesthesia, surgery, etc. were excluded, and successfully modeled animals were randomly grouped. Schemes were set according to trial doses, and drug treatment was given 3 h, 4 h, and 5 h after cerebral ischemia-reperfusion. Death conditions were recorded every day after the surgery, and indicators were evaluated after 48 h. In the whole trial process, general conditions were observed, mainly including: death, coma, breathing, urine and feces traits, hair colors, mental status, vomiting and vomitus, bleeding, convulsion, spasm, etc. Abnormal animals due to unexpected factors were excluded. Finally, unblinding was conducted by a person who made blind trials.
Evaluated indicator: (1) Evaluation of symptoms of neurological deficits: The symptoms of neurological deficits were evaluated by using a modified Bederson 5-point scale. A single-blind method was used for evaluating the symptoms of neurological deficits in rats with brain trauma. That is, a trial designer marked animals in accordance with groups, and an experimenter who scored the symptoms of neurological deficits had no knowledge of how the animals were grouped. After scoring was completed, the scorer submitted scoring results for various marks to the designer, and the designer performed unblinding to obtain scores of animals in each trial group. (2) Measurement of cerebral infarction area: A method reported in the literature was used. An animal was anesthetized with 10% chloral hydrate and decapitated to collect brain. The olfactory bulb, cerebellum and lower brain stem were removed. Blood stains on the surface of the brain were rinsed with normal saline, the residual water stains on the surface were absorbed, and the brain was placed at −80° C. for 7 min. After the brain was taken out, a coronal section was immediately made at downwards and vertical to the sight intersection plane, and brain slices were made every 2 mm backwards. Brain slices were placed in a TTC (20 g/L) dye solution prepared with 0.9% normal saline, and incubated at 37° C. for 90 min. Normal brain tissues were stained deep red, and ischemic brain tissues were pale-white. After rinsed with normal saline, the brain sections were quickly arranged in order from front to back, the residual water stains on the surface were absorbed to dryness, and pictures were taken. Image analysis software was used for statistics on the pictures. Ischemic area (white region) on the right side and total area on the right side were delineated, and a percentage of the cerebral infarction area was calculated by the following formula: […]
Statistical analysis: Quantitative data is expressed as mean value±standard error. […]

[5] = Distribution in brain: plasma and intracerebral concentrations after intravenous injection; assay type: in vivo; details: both sexes, rat, rats, 4 mg/kg iv; for Kp at 10 min / Kp at 60 min / Kp at 180 min: brain/plasma, read-out: Brain/Blood Concentration Ratio
Procedure: In this example, Compounds A to E, D-bornyl ferulate, and D-tanshinol borneol ester were measured for distribution in brain. Structures of D-bornyl ferulate (Patent Application No.: 201510243181.5) and D-tanshinol borneol ester compounds are as follows:
Method for testing distribution in brain: 42 rats with a weight range of 200±20 g were taken. The rats were randomly divided into 7 groups, with 6 rats per group, half male and half female. Rats were fasted with free access to water for 12 h and then intravenously injected with 4 mg/kg of a compound. Rats in the 3 groups were sacrificed through femoral artery bleeding and collected for blood 10 min, 60 min, 180 min after administration, respectively. Brains were taken out, 0.2 g was weighted, and 1 mL of pure water was added for homogenizing. The blood samples and brain homogenate samples were stored at −20° C.
Distribution of Compounds A to E, and D-bornyl ferulate and D-tanshinol borneol ester compounds in brain: Data on concentrations of Compounds A to E, D-bornyl ferulate, and D-tanshinol borneol ester in plasma and intracerebral in rats intravenously injected with 4 mg/kg of Compounds A to E, D-bornyl ferulate, and D-tanshinol borneol ester are listed in Table 9.

[6] = drug given 3 h after reperfusion
[7] = drug given 4 h after reperfusion
[8] = drug given 5 h after reperfusion
[9] = brain, read-out: Mean Intracerebral Concentration
[10] = plasma, read-out: Mean Plasma Concentration

Row | Compound | Blood viscosity, High Shear [1] | Blood viscosity, Low Shear [1] | inhibition at 4 mg/kg [2] [%] | Maximum Aggregation Rate [2] [%] | inhibition at 4 mg/kg [3] [%] | Maximum Aggregation Rate [3] [%] | Kp at 10 min [5] | Kp at 60 min [5] | Kp at 180 min [5] | concentration at 10 min [5, 9] [ng/g] | concentration at 60 min [5, 9] [ng/g] | concentration at 180 min [5, 9] [ng/g] | concentration at 10 min [5, 10] [ng/mL] | concentration at 60 min [5, 10] [ng/mL] | concentration at 180 min [5, 10] [ng/mL] | also measured
1 | COc1cc(CCC(=O)O[C@H]2C[C@H]3CC[C@]2(C)C3(C)C)cc(F)c1O [Compound A] | 2.56 ± 0.057 | 13.2 ± 0.535 | 52.3 | 15.7 ± 6.31 | 60.2 | 28.4 ± 6.4 | 2.6 | 5.7 | 3.2 | 2640 ± 517 | 1420 ± 309 | 311 ± 115 | 1020 ± 192 | 252 ± 76.5 | 97.3 ± 22.7 | treatment time window ([4]; after ischemia (2 h ischemia then reperfusion)): not less than 6 h; Score of Symptoms of Neurological Deficits [4, 6]: 2.04 ± 0.12; Infarction area [4, 6]: 23.56 ± 2.86 %; Score of Symptoms of Neurological Deficits [4, 7]: 2.13 ± 0.14; Infarction area [4, 7]: 24.54 ± 2.53 %; Score of Symptoms of Neurological Deficits [4, 8]: 2.42 ± 0.17; Infarction area [4, 8]: 32.43 ± 2.13%
2 | COc1cc(CCC(=O)O[C@H]2C[C@H]3CC[C@]2(C)C3(C)C)cc(OC)c1O [Compound C] | 2.70 ± 0.982 | 13.9 ± 1.014 | 56.5 | 14.3 ± 5.64 | 52.9 | 33.6 ± 7.9 | 2.9 | 11 | 2 | 2630 ± 167 | 1870 ± 406 | 188 ± 51.9 | 906 ± 145 | 160 ± 49.1 | 92.2 ± 35.5 | –
